From the NIST ThermoML archive (doi:10.1021/acs.jced.7b00060)
“And” between values parts separate entries of the source, which are not always exact repeats. Equal entries are not always repeated. ± gives the expanded uncertainty stated by the source.

Experiments:
[1] = 101.33 kPa, Liquid; for viscosity: Falling or rolling sphere viscometry; for electrical conductivity: Alternating current cell with electrodes; for mass density: Vibrating tube method
[2] = refractive index (Na D-line) (dimensionless); conditions: 101.33 kPa, Liquid, Standard Abbe refractometry

CCCCCCCC[N+](C)(CCCCCCCC)CCCCCCCC.O=C([O-])C(F)(F)F [methyltrioctylammonium trifluoroacetate]
[1]
Conditions	electrical conductivity [S/m]	mass density [kg/m3]	viscosity [mPa·s]
288.15 K	–	–	3629 ± 520
298.15 K	0.00155 ± 2.4e-05	962.478 ± 2.1	1551 ± 180
303.15 K	–	959.262 ± 2	–
308.15 K	0.00329 ± 5e-05	956.054 ± 2	735.2 ± 67
313.15 K	–	952.805 ± 2	–
318.15 K	0.0063 ± 9.5e-05	949.626 ± 2	380.8 ± 26
323.15 K	–	946.478 ± 2	–
328.15 K	0.0112 ± 0.00017	943.335 ± 2	212.1 ± 11
333.15 K	–	940.189 ± 2	–
338.15 K	0.0185 ± 0.00028	937.046 ± 2	126.7 ± 4.3
343.15 K	–	933.904 ± 2	–
348.15 K	0.0293 ± 0.00044	930.772 ± 2	79.97 ± 1.9
353.15 K	–	927.648 ± 2	–
358.15 K	0.0444 ± 0.00067	924.529 ± 2	53.33 ± 0.99
363.15 K	–	921.418 ± 2	–
368.15 K	0.0647 ± 0.00097	–	36.92 ± 0.73
378.15 K	0.0924 ± 0.0014	–	26.69 ± 0.52
388.15 K	0.125 ± 0.0019	–	19.8 ± 0.39
398.15 K	–	–	15.03 ± 0.3

CCCC[N+]1(C)CCCC1.N#CN=C=[N-] [1-butyl-1-methylpyrrolidinium dicyanamide]
Conditions	electrical conductivity, [1]	mass density, [1]	refractive index, [2]	viscosity, [1]
238.15 K	0.0337 ± 0.0005 S/m	–	–	–
248.15 K	0.081 S/m and 0.102 S/m	–	–	–
258.15 K	0.166 S/m and 0.2 S/m	–	–	–
268.15 K	0.299 S/m and 0.352 S/m	–	–	–
278.15 K	0.49 S/m and 0.566 S/m	1029 ± 2.2 kg/m3 and 1024.78 ± 2.2 kg/m3	–	95.5 ± 2.6 mPa·s and 80.15 ± 1.9 mPa·s
288.15 K	0.746 S/m and 0.844 S/m	1023.24 ± 2.2 kg/m3 and 1019.06 ± 2.2 kg/m3	1.4862 ± 0.003	61.23 ± 1.2 mPa·s and 51.72 ± 0.96 mPa·s
293.15 K	–	–	1.4853 ± 0.003	–
298.15 K	1.07 S/m and 1.19 S/m	1017.56 ± 2.2 kg/m3 and 1013.4 ± 2.2 kg/m3	1.4847 ± 0.003	41.78 ± 0.82 mPa·s and 35.85 ± 0.71 mPa·s
303.15 K	–	–	1.4842 ± 0.003	–
308.15 K	1.46 S/m and 1.61 S/m	1011.95 ± 2.2 kg/m3 and 1007.81 ± 2.2 kg/m3	1.4836 ± 0.003	29.99 ± 0.59 mPa·s and 25.93 ± 0.51 mPa·s
313.15 K	–	–	1.4832 ± 0.003	–
318.15 K	1.92 S/m and 2.08 S/m	1006.4 ± 2.2 kg/m3 and 1002.27 ± 2.1 kg/m3	1.4826 ± 0.003	21.44 ± 0.42 mPa·s and 19.43 ± 0.38 mPa·s
323.15 K	–	–	1.4818 ± 0.003	–
328.15 K	2.44 S/m and 2.63 S/m	1000.91 ± 2.1 kg/m3 and 996.796 ± 2.1 kg/m3	1.481 ± 0.003	16.47 ± 0.32 mPa·s and 15 ± 0.29 mPa·s
333.15 K	–	–	1.48 ± 0.003	–
338.15 K	3.02 S/m and 3.23 S/m	995.474 ± 2.1 kg/m3 and 991.368 ± 2.1 kg/m3	1.479 ± 0.003	13.08 ± 0.26 mPa·s and 11.84 ± 0.23 mPa·s
343.15 K	–	–	1.4779 ± 0.003	–
348.15 K	3.88 ± 0.058 S/m	985.987 ± 2.1 kg/m3	–	10.57 ± 0.21 mPa·s and 9.634 ± 0.19 mPa·s
358.15 K	4.58 ± 0.069 S/m	980.656 ± 2.1 kg/m3	–	8.801 ± 0.17 mPa·s and 8.017 ± 0.16 mPa·s
368.15 K	5.32 ± 0.08 S/m	–	–	7.467 ± 0.14 mPa·s and 6.774 ± 0.13 mPa·s
378.15 K	6.11 ± 0.092 S/m	–	–	6.444 ± 0.12 mPa·s and 5.761 ± 0.11 mPa·s
388.15 K	6.93 ± 0.1 S/m	–	–	5.605 ± 0.11 mPa·s and 5.001 ± 0.097 mPa·s
398.15 K	7.78 ± 0.12 S/m	–	–	4.956 ± 0.096 mPa·s and 4.386 ± 0.085 mPa·s
408.15 K	8.67 ± 0.13 S/m	–	–	3.905 ± 0.076 mPa·s
418.15 K	9.57 ± 0.14 S/m	–	–	–
428.15 K	10.5 ± 0.16 S/m	–	–	–
438.15 K	11.4 ± 0.17 S/m	–	–	–
448.15 K	12.3 ± 0.18 S/m	–	–	–

CC[S+](CC)CC.O=S(=O)([N-]S(=O)(=O)C(F)(F)F)C(F)(F)F [triethylsulfonium bis((trifluoromethyl)sulfonyl)imide]
Conditions	electrical conductivity [S/m]	mass density [kg/m3]	refractive index	viscosity [mPa·s]
[1], 258.15 K	0.0992 ± 0.0015	–	–	–
[1], 268.15 K	0.186 ± 0.0028	–	–	–
[1], 278.15 K	0.314 ± 0.0047	1479.69 ± 3	–	80.5 ± 1.8
[1], 288.15 K	0.487 ± 0.0073	1469.86 ± 3	–	49.88 ± 0.9
[1], 298.15 K	0.708 ± 0.011	1460.14 ± 3	–	33.36 ± 0.59
[1], 308.15 K	0.975 ± 0.015	1450.51 ± 3	–	23.5 ± 0.41
[1], 318.15 K	1.29 ± 0.019	1440.97 ± 2.9	–	17.34 ± 0.3
[1], 328.15 K	1.64 ± 0.025	1431.52 ± 2.9	–	13.26 ± 0.23
[1], 338.15 K	2.03 ± 0.03	1422.15 ± 2.9	–	10.44 ± 0.18
[1], 348.15 K	2.46 ± 0.037	–	–	8.445 ± 0.15
[1], 358.15 K	2.91 ± 0.044	–	–	6.963 ± 0.12
[1], 368.15 K	3.4 ± 0.051	–	–	5.849 ± 0.1
[1], 378.15 K	3.92 ± 0.059	–	–	4.99 ± 0.087
[1], 388.15 K	4.43 ± 0.07	–	–	4.312 ± 0.075
[1], 398.15 K	5 ± 0.075	–	–	3.768 ± 0.066
[1], 408.15 K	5.58 ± 0.084	–	–	–
[1], 418.15 K	6.16 ± 0.092	–	–	–
[1], 428.15 K	6.76 ± 0.1	–	–	–
[1], 438.15 K	7.37 ± 0.11	–	–	–
[1], 448.15 K	7.98 ± 0.12	–	–	–
[1], 458.15 K	8.59 ± 0.13	–	–	–
[1], 468.15 K	9.17 ± 0.14	–	–	–
[2], 283.15 K	–	–	1.4308 ± 0.0029	–
[2], 288.15 K	–	–	1.4293 ± 0.0029	–
[2], 293.15 K	–	–	1.4279 ± 0.0029	–
[2], 298.15 K	–	–	1.4264 ± 0.0029	–
[2], 303.15 K	–	–	1.4249 ± 0.0029	–
[2], 308.15 K	–	–	1.4234 ± 0.0029	–
[2], 313.15 K	–	–	1.4219 ± 0.0029	–
[2], 318.15 K	–	–	1.4204 ± 0.0029	–
[2], 323.15 K	–	–	1.419 ± 0.0029	–
[2], 328.15 K	–	–	1.4175 ± 0.0029	–
[2], 333.15 K	–	–	1.4161 ± 0.0029	–
[2], 338.15 K	–	–	1.4148 ± 0.0029	–
[2], 343.15 K	–	–	1.4134 ± 0.0028	–
